Assay type in all cases: in vitro ADME
Settings in all cases: human liver microsomes; >75 = low level of inhibition
(Liver microsomes are vesicles of endoplasmic reticulum, rich in cytochrome P450 enzymes.)

One data set deals with T1, CYP 1A2 (Homo sapiens, UniProt P05177).
T1 construct: For human liver microsome solution, a stock solution (20 mg/mL (4×final)) is used; from tissue; host or cells: human liver microsomes
T1 sequence (P05177 1-516): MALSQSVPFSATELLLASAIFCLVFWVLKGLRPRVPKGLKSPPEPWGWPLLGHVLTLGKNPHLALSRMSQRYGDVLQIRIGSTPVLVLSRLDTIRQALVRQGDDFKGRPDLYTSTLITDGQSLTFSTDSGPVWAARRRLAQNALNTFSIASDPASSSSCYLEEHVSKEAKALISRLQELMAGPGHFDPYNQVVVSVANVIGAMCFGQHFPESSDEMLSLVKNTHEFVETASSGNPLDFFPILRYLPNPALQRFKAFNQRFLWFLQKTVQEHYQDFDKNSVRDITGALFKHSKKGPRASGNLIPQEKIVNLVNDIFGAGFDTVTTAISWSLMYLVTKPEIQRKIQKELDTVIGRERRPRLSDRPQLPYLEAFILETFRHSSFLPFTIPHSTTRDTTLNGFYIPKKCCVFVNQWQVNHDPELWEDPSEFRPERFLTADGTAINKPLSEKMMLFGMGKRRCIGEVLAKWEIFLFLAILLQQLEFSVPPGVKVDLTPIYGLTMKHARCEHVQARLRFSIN
As to the kind of experiment: CYP inhibition testing, CYP 1A2. The method, then: (§1) Select compounds are tested for CYP inhibition against five different CYP enzymes: CYP 1A2, CYP 2C9, CYP 2C19, CYP 2D6, CYP 3A4. Individual CYP enzymes are incubated with corresponding substrates with no inhibitor (negative control). Individual CYP enzymes are then incubated with corresponding substrates in the presence of test compound. […] Values of 70>v, w, x, y, z>30 indicate moderate level of inhibition of the corresponding enzyme.
(§2) The following reagents are used: Sodium Phosphate, monobasic; Sodium Phosphate, dibasic; β-Nicotinamide Adenine Dinucleotide Phosphate-Reduced (NADPH), Roche; Milli-Q Water; 0.1 M Potassium phosphate buffer (K-buffer), pH 7.4. The following stock solutions are used. Stock A (136.5 g of monobasic potassium phosphate in 1 L of Milli-Q water (1.0 M)). Stock B (174.2 g of dibasic potassium phosphate in 1 L of Milli-Q water (1.0 M)). 40.5 mL of Stock B is mixed with 9.5 mL of Stock A, and the total volume brought near 500 mL with Milli-Q water to give 0.1 M potassium phosphate buffer. The buffer is titrated with KOH or H3PO4 to pH 7.4. To prepare a cofactor buffer (4×, 8 mM NADPH), 66.7 mg of NADPH tetrasodium salt is dissolved in 10 mL of K-buffer. For human liver microsome solution, a stock solution (20 mg/mL (4×final)) is used.
(§3) The following Positive control stock solutions are prepared: 0.3 mM α-Naphthoflavone (MW: 272.3, 0.0817 mg of α-Naphthoflavone in 1 mL DMSO), 10 mM Sulfaphenazole (MW: 314.4, 3.14 mg of sulfaphenazole in 1 mL DMSO) 100 mM Omeprazole (MW: 345.4, 34.54 mg of omeprazole in 1 mL DMSO), 2.5 mM Quinidine (MW: 324, 0.81 mg of quinidine in 1 mL DMSO), and 2.5 mM Ketoconazole (MW: 531.4, 1.33 mg of ketoconazole in 1 mL DMSO).
(§4) The following substrate stock solutions are prepared: 6 mM Phenacetin (MW: 179.22, 1.075 mg of phenacetin in 1 mL can), 10 mM Diclofenac (MW: 318.83, 3.18 mg of Diclofenac in 1 ml H2O), 35 mM S-Mephenyloin (MW: 218.25, 7.64 mg of s-mephenyloin in 1 mL ACN 10 mM Bufuralol (MW: 297.82, 2.98 mg of Bufuralol in 1 ml H2O), 1 mM Midazolam (MW: 325.77, 0.326 mg of midazolam in 1 mL can), and 10 mM Testosterone (MW: 288.42, 2.88 mg of Testosterone in 1 ml ACN.
(§5) Test compounds and reference compounds (positive control) are prepared in 0.2 mg/ml liver microsome solution. A 0.2 mg/ml liver microsome solution (2×final) is prepared from stock solution by adding 10 μL microsome stock solutions (20 mg/ml) in 990 μL K-buffer. 8 μL of 10 mM test compound stock solution (in DMSO or other solvent at various concentrations) is diluted with 12 μL ACN to make 4 mM solutions. 1:3 serial dilutions are performed using DMSO/ACN (40:60) from 4 mM solution further down seven concentration points (400×final): 4 mM, 1.33 mM, 0.44 mM, 0.148 mM, […], 0.0165 mM, 0.00549 mM, 0 mM. […]

A further data set deals with T2, CYP 2C9 (Homo sapiens, UniProt P11712).
T2 construct: For human liver microsome solution, a stock solution (20 mg/mL (4×final)) is used; from tissue; host or cells: human liver microsomes
T2 sequence (P11712 whole entry): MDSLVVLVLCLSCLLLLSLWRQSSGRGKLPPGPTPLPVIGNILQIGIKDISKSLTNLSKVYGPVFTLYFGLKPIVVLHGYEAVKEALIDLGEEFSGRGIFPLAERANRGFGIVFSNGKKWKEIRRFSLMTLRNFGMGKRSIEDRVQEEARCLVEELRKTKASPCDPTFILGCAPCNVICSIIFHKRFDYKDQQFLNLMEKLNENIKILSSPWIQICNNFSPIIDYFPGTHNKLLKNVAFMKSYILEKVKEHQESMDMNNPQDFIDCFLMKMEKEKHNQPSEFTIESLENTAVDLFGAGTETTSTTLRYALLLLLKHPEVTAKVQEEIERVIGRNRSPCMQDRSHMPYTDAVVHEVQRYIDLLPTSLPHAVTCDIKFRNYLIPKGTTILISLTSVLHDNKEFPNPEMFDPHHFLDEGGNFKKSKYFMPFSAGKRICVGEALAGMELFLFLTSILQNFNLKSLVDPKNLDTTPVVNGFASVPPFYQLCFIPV
As to the kind of experiment: CYP inhibition testing, CYP 2C9. The method, then: as §1, §2, §3, §4, §5

The next data set concerns the target T3, CYP 2C19 (Homo sapiens, UniProt P33261).
T3 construct: For human liver microsome solution, a stock solution (20 mg/mL (4×final)) is used; from tissue; host or cells: human liver microsomes
Nature of the data set: CYP inhibition testing, CYP 2C19. The method, then:
as §1, §2, §3, §4, §5

The next data set concerns the target T4, CYP 3A4 (Homo sapiens, UniProt P08684).
T4 construct: For human liver microsome solution, a stock solution (20 mg/mL (4×final)) is used; from tissue; host or cells: human liver microsomes
Nature of the data set: CYP inhibition testing, CYP 3A4. The procedure:
as §1, §2, §3, §4, §5

T3 sequence (P33261 whole entry): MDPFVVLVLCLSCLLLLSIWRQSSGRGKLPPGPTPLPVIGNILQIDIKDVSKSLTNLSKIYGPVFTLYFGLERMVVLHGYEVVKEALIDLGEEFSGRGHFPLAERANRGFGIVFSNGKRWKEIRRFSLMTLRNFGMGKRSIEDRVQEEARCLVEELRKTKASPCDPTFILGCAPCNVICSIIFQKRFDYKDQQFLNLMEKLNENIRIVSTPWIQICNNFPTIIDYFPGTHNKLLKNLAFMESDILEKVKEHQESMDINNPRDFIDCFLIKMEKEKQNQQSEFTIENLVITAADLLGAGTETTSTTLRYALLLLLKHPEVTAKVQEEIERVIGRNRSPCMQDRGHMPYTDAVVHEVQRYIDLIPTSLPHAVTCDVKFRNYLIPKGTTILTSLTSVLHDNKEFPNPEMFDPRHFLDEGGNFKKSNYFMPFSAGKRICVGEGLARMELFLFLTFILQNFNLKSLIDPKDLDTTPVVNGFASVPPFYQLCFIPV
T4 sequence (P08684 whole entry): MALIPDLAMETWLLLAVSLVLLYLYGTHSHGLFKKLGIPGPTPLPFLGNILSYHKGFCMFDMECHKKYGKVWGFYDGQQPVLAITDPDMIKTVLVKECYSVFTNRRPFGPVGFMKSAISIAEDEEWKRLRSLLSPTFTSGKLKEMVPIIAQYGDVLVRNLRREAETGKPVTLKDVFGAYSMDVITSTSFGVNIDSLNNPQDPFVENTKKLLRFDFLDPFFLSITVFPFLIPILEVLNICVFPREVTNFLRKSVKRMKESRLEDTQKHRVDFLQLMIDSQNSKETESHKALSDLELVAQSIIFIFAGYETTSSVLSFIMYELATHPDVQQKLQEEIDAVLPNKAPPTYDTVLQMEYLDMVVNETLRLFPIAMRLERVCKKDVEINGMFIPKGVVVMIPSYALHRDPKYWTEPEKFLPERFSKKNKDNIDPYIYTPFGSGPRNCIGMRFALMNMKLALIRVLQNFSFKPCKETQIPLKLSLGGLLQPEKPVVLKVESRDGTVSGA

As for `Cn1nc(CCCN2CCCC2)c2ccc(N3CCCCCCC3)nc21` [compound 1171], the “CYP (% negative controls) 1A2” value on CYP 1A2 is on record as 104 % negative controls. Moreover, the “CYP (% negative controls) 2C9” value on CYP 2C9 worked out at 141 % negative controls. Further, the “CYP (% negative controls) 2C19” value at CYP 2C19 is listed as 72 % negative controls. The “CYP (% negative controls) 3A4” value at CYP 3A4 was determined as 67 % negative controls.
For `Cn1nc(C(=O)NC2CCNCC2)c2ccc(N3CCCCCC3)nc21.O=C(O)C(F)(F)F.O=C(O)C(F)(F)F` [compound 697], in that order: 97 % negative controls, 92 % negative controls, 78 % negative controls and 110 % negative controls.
Taken in the same sequence, the figures for `Cn1nc(C(=O)NC2CCN(CCN3CCCCC3)CC2)c2ccc(N3CCCCCC3)nc21` [compound 1047] were 98 % negative controls, 91 % negative controls, 92 % negative controls and 113 % negative controls.
Taken in the same sequence, the figures for `CCC(CC)Oc1ccc2c(C(=O)NC3CCNCC3)n[nH]c2n1` [compound 726] were 102 % negative controls, 84 % negative controls, 74 % negative controls and 60 % negative controls.

The values above are taken from patent publication US20120232062A1, “AZAINDAZOLES TO TREAT FLAVIVIRIDAE VIRUS INFECTION” (EIGER BIOPHARMACEUTICALS, INC., priority 2009, published 2012).
